Reference: BindingDB's records for doi:10.7270/Q2J38R0R (Burnham Center For Chemical Genomics, 2010)

Biological target: Intestinal-type alkaline phosphatase (Mus musculus, UniProt P24822)
Assay: mouse intestinal alkaline phosphatase activators, dose response, biochemical, luminescence, uHTS hits (AID 488783)

Intestinal-type alkaline phosphatase, sequence (P24822 whole entry, looked up): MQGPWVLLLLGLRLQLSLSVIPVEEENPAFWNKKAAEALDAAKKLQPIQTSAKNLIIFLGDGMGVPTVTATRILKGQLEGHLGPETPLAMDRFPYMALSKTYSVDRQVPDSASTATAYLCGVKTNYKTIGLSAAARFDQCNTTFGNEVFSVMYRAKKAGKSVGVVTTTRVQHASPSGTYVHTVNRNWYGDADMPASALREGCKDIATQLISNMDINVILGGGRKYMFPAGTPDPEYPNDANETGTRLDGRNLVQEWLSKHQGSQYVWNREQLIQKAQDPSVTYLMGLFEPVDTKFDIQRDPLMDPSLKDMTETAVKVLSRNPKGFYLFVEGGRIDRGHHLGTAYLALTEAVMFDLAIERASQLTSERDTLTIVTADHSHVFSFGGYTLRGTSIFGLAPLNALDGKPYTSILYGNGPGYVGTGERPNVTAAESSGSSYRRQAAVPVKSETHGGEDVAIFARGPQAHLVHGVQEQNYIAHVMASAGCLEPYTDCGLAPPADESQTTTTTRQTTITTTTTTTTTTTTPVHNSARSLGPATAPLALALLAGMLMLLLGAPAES

Row | EC50 | SMILES
1 | 9.93 µM | O=C1CC(=O)c2c(O)cc(O)c(O)c2C1=O [4,5,7,8-tetrahydroxy-1,2-naphthoquinone]
2 | 58.7 µM | Cc1cc(=O)[nH]c(N=NCc2ccc(O)c(O)c2)n1 [MLS001194906]
3 | 4.96 µM | O=C(NN=CC1=CC(=O)C(=O)CC1)NN=CC1=CC(=O)C(=O)CC1 [1,3-bis[[(Z)-(3-hydroxy-4-oxocyclohexa-2,5-dien-1-ylidene)methyl]amino]urea]
4 | 17.5 µM | CN(CCO)c1ccc(CN=Nc2ccc([N+](=O)[O-])cc2S(=O)(=O)Nc2ccccc2C(=O)O)cc1
